One assay deals with RET kinase (Homo sapiens, UniProt P07949). In words: RET Kinase Activity Assay. The settings on record: read-out: Ret, % INH, at 30 uM. Type of assay: biochemical. Here is the method: The disclosed compounds were assayed for their ability to inhibit the activity of RET kinase. Nunc Maxwasorb plates were coated with streptavidin by overnight incubation with 100 μL per well of 1 μg/mL Streptavidin in DPBS. Prior to the start of the experiment, the plates were washed with TBST (3×200 μL) and blocked for at least 1 hour by adding 150 μL of 5% BSA/TBST. The plates were washed with TBST (3×200 […]) and left dry immediately before the capture step.
The test articles and controls (Staurosporine and Sutent) were prepared using the following assay buffer @ 3× desired final concentration (50 mM […], 0.02 mg/mL BSA, 10 mM MgCl2, 0.1 mM Na3VO4, 1 mM EGTA, 75 μM ATP0.01% NP-40, 2 mM DTT in 10% glycerol/water). In a reaction plate, were added rapidly 20 μL test article (or control) and 20 μL RET (0.25 ng/4 final concentration). The plate was incubated for 15 minutes. To the reaction plate was added 20 μL of Pyk-2 (0.25 ng/4 final concentration). The plate was incubated at room temperature for one hour.
From the reaction plate, 50 μL was transferred to the streptavidin coated plate. The capture plate was incubated at room temperature for 30 minutes then washed 6× with TBST. To the capture plate was added 100 μL/well of Cell Signaling anti-phospho tyrosine at a dilution of 1:3000 in 2% BSA/TBST. The plate was incubated for one hour at room temperature then washed 6× with TBST. To the capture plate was added 100 μL/well of Alkaline Phosphatase Tagged Goat anti Mouse Antibody at a dilution of 1:4000 in 2% BSA/TBST. The plate was incubated for one hour at room temperature then washed 6× with TBST. The fluorescent readout was initiated by the addition of 100 μL/well of Attophos reagent (6 mg/10 mL). The reading was done on the Perkin Elmer Envision system.

The target of the next assay is T1, Tec kinase (Homo sapiens, UniProt P42680).
T1 sequence (P42680 1-631): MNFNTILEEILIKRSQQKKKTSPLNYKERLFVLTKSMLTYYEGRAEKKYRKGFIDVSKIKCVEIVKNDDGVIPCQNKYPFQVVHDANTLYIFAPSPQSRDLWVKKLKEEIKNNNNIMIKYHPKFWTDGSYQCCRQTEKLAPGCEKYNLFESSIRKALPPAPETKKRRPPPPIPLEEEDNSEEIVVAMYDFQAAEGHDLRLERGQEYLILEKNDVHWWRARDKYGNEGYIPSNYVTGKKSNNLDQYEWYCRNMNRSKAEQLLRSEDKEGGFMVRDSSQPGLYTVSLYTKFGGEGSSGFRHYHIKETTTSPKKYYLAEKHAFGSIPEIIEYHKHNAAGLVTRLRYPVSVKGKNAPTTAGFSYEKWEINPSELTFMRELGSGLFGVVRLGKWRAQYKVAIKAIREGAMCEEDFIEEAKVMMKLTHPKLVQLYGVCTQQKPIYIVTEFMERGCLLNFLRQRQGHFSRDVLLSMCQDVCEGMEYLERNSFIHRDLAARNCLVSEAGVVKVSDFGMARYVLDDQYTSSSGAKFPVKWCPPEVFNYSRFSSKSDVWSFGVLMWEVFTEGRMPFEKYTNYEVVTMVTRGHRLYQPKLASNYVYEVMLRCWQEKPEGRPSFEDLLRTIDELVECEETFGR
In words: Tec Kinase Activity Assay. Format: biochemical. The conditions noted are these: read-out: Tec % INH, at 30 uM. Here is the method: The disclosed compounds were assayed for their ability to inhibit the activity of Tec kinase. Nunc Maxisorb plates were coated with streptavidin by overnight incubation with 100 μL per well of 1 μg/mL Streptavidin in DPBS. Prior to the start of the experiment, the plates were washed with TBST (3×200 μL) and blocked for at least 1 hour by adding 150 μL of 5% BSA/TBST. The plates were washed with TBST (3×200 μL/well) and left dry immediately before the capture step.
The test articles and controls (Staurosporine and Sutent) were prepared using the following assay buffer @ 3× desired final concentration (50 mM Tris-HCl, 0.02 mg/mL BSA, 10 mM MgCl2, 0.1 mM Na3VO4, 1 mM EGTA, 75 μM ATP0.01% NP-40, 2 mM DTT in 10% glycerol/water). In a reaction plate were added rapidly 20 μL test article (or control) and 20 μL TEC 0.25 ng/4. The plate was incubated for 30 minutes. To the reaction plate was added 20 μL of Pyk-2.5 ng/μL. The plate was incubated at room temperature for two hours. From the reaction plate, 50 μL was transferred to the streptavidin coated plate. The capture plate was incubated at room temperature for 30 minutes then washed 6× with TBST. To the capture plate was added 100 μL/well of Cell Signaling anti-phospho tyrosine at a dilution of 1:3000 in 2% BSA/TBST. The plate was incubated for one hour at room temperature then washed 6× with TBST. To the capture plate was added 100 μL/well of Alkaline Phosphatase Tagged Goat anti Mouse Antibody at a dilution of 1:4000 in 2% BSA/TBST. The plate was incubated for one hour at room temperature then washed 6× with TBST. The fluorescent readout was initiated by the addition of 100 μL/well of Attophos reagent (6 mg/10 mL). The reading was done on the Perkin Elmer Envision system.

Sequence of RET kinase (P07949 29-1114): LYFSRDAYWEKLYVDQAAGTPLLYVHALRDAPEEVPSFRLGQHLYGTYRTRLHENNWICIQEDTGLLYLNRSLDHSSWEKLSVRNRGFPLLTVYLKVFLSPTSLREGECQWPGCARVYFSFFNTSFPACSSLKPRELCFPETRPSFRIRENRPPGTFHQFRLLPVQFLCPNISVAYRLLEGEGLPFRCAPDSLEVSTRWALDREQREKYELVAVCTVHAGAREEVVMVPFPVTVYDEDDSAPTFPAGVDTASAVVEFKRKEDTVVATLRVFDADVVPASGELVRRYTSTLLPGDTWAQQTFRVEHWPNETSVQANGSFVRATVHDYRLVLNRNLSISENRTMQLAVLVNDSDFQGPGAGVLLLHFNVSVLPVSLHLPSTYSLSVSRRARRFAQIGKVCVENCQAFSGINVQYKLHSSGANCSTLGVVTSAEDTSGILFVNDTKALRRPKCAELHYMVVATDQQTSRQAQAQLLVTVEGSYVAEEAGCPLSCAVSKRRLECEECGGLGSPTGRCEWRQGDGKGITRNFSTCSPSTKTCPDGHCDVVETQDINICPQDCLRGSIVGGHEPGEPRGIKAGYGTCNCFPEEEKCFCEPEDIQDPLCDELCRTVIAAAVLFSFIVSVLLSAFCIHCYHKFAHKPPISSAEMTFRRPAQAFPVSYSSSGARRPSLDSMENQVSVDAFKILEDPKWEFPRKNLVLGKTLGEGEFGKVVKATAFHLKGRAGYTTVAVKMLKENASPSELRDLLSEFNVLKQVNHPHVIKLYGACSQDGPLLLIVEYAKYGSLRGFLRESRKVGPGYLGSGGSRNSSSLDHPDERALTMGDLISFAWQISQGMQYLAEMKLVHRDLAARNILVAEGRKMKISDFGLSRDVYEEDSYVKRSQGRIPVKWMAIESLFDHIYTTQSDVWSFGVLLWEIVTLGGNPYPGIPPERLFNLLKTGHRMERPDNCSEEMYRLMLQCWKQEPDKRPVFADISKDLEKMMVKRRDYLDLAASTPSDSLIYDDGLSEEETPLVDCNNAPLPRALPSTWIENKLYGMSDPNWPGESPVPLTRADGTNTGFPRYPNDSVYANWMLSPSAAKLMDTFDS

As to `Nc1nc(N2CCN(Cc3ccc(Cl)cc3)c3ccccc3C2)c2cn[nH]c2n1` [Compound 23, 4-[1-(4-chlorobenzyl)-1,2,3,5-tetrahydro-4H-1,4-benzodiazepin-4-yl]-1H-pyrazolo[3,4-d]pyrimidin-6-amine], the inhibition at 30 µM on RET kinase and at Tec kinase was below 50% throughout.

As to `Nc1nc(N2CCN(Cc3cccc4ccccc34)c3ccccc3C2)c2nc[nH]c2n1` [Compound 17, 6-[1-(1-naphthylmethyl)-1,2,3,5-tetrahydro-4H-1,4-benzodiazepin-4-yl]-9H-purin-2-amine], the inhibition at 30 µM on RET kinase and on Tec kinase was 50 to 79% throughout.

As for `Nc1nc(N2CCN(Cc3ccc(F)cc3)c3ccccc3C2)c2cn[nH]c2n1` [Compound 16, 4-[1-(4-fluorobenzyl)-1,2,3,5-tetrahydro-4H-1,4-benzodiazepin-4-yl]-1H-pyrazolo[3,4-d]pyrimidin-6-amine], the inhibition at 30 µM at RET kinase is below 50%; at Tec kinase it was 50 to 79%.

`CC(C)c1ccc(CN2CCN(c3nc(N)nc4[nH]ncc34)Cc3ccccc32)cc1` [Compound 4, 4-[1-(4-isopropylbenzyl)-1,2,3,5-tetrahydro-4H-1,4-benzodiazepin-4-yl]-1H-pyrazolo[3,4-d]pyrimidin-6-amine]: the values for the inhibition at 30 µM on RET kinase and at Tec kinase were below 50% and 50 to 79%, respectively.

`Nc1nc(N2CCN(CCCc3cccc(F)c3)c3ccccc3C2)c2nc[nH]c2n1` [Compound 39, 6-{1-[3-(3-fluorophenyl)propyl]-1,2,3,5-tetrahydro-4H-1,4-benzodiazepin-4-yl}-9H-purin-2-amine]: the inhibition at 30 µM at RET kinase is 50 to 79%; on Tec kinase it was below 50%.

As for `COc1cc2c(cc1OC)C(c1cccc(Cl)c1F)N(c1nc(N)nc3[nH]cnc13)CC2` (stereo not shown) [Compound 49, 6-[1-(3-chloro-2-fluorophenyl)-6,7-dimethoxy-3,4-dihydroisoquinolin-2(1H)-yl]-9H-purin-2-amine], the inhibition at 30 µM at RET kinase and at Tec kinase was below 50% throughout.

For the compound `Nc1nc(N2CCN(Cc3ccccc3Cl)c3ccccc3C2)c2nc[nH]c2n1` [Compound 13, 6-[1-(2-chlorobenzyl)-1,2,3,5-tetrahydro-4H-1,4-benzodiazepin-4-yl]-9H-purin-2-amine], the inhibition at 30 µM at RET kinase and at Tec kinase was below 50% in each case.

For `Cc1cccc(CN2CCN(c3nc(N)nc4[nH]ncc34)Cc3ccccc32)c1` [Compound 34, 4-[1-(3-methylbenzyl)-1,2,3,5-tetrahydro-4H-1,4-benzodiazepin-4-yl]-1H-pyrazolo[3,4-d]pyrimidin-6-amine], the values for the inhibition at 30 µM on RET kinase and at Tec kinase were below 50% and 50 to 79%, respectively.

As for `Nc1nc(N2CCN(Cc3ccc(F)cc3F)c3ccccc3C2)c2nc[nH]c2n1` [Compound 37, 6-[1-(2,4-difluorobenzyl)-1,2,3,5-tetrahydro-4H-1,4-benzodiazepin-4-yl]-9H-purin-2-amine], the inhibition at 30 µM on RET kinase and on Tec kinase was 50 to 79% throughout.

Take `Nc1nc(N2CCN(Cc3cccc(F)c3)c3ccccc3C2)c2cn[nH]c2n1` [Compound 6, 4-[1-(3-fluorobenzyl)-1,2,3,5-tetrahydro-4H-1,4-benzodiazepin-4-yl]-1H-pyrazolo[3,4-d]pyrimidin-6-amine]: the inhibition at 30 µM at RET kinase and on Tec kinase was 50 to 79% throughout.

Turning to `Nc1nc(N2CCN(Cc3cccc(Cl)c3)c3ccccc3C2)c2nc[nH]c2n1` [Compound 24, 6-[1-(3-chlorobenzyl)-1,2,3,5-tetrahydro-4H-1,4-benzodiazepin-4-yl]-9H-purin-2-amine], the inhibition at 30 µM at RET kinase and on Tec kinase was 50 to 79% throughout.

With `Nc1nc(N2CCN(Cc3ccc(F)c(F)c3)c3ccccc3C2)c2cn[nH]c2n1` [Compound 47, 4-[1-(3,4-difluorobenzyl)-1,2,3,5-tetrahydro-4H-1,4-benzodiazepin-4-yl]-1H-pyrazolo[3,4-d]pyrimidin-6-amine], the inhibition at 30 µM on RET kinase and at Tec kinase was 50 to 79% each time.

As for `Cc1ccccc1CN1CCN(c2nc(N)nc3[nH]cnc23)Cc2ccccc21` [Compound 11, 6-[1-(2-methylbenzyl)-1,2,3,5-tetrahydro-4H-1,4-benzodiazepin-4-yl]-9H-purin-2-amine], the inhibition at 30 µM on RET kinase and at Tec kinase was 50 to 79% in each case.

Regarding `COc1cccc(CN2CCN(c3nc(N)nc4[nH]cnc34)Cc3ccccc32)c1` [Compound 2, 6-[1-(3-methoxybenzyl)-1,2,3,5-tetrahydro-4H-1,4-benzodiazepin-4-yl]-9H-purin-2-amine], the inhibition at 30 µM at RET kinase and at Tec kinase was 50 to 79% throughout.

As for `Cc1ccccc1CN1CCN(c2nc(N)nc3[nH]ncc23)Cc2ccccc21` [Compound 12, 4-[1-(2-methylbenzyl)-1,2,3,5-tetrahydro-4H-1,4-benzodiazepin-4-yl]-1H-pyrazolo[3,4-d]pyrimidin-6-amine], the inhibition at 30 µM on RET kinase was below 50%; on Tec kinase, 50 to 79%.

For `Nc1nc(N2CCN(CCCc3cccc(Cl)c3)c3ccccc3C2)c2cn[nH]c2n1` [Compound 8, 4-{1-[3-(3-chlorophenyl)propyl]-1,2,3,5-tetrahydro-4H-1,4-benzodiazepin-4-yl}-1H-pyrazolo[3,4-d]pyrimidin-6-amine], the values for the inhibition at 30 µM at RET kinase and at Tec kinase were below 50% and above 79%, respectively.

Regarding `Nc1nc(N2CCN(Cc3cccc(Cl)c3)c3ccccc3C2)c2cn[nH]c2n1` [Compound 25, 4-[1-(3-chlorobenzyl)-1,2,3,5-tetrahydro-4H-1,4-benzodiazepin-4-yl]-1H-pyrazolo[3,4-d]pyrimidin-6-amine], the inhibition at 30 µM was below 50% on RET kinase and 50 to 79% on Tec kinase.

Consider `Nc1nc(N2CCN(Cc3ccc(Cl)c(Cl)c3)c3ccccc3C2)c2nc[nH]c2n1` [Compound 42, 6-[1-(3,4-dichlorobenzyl)-1,2,3,5-tetrahydro-4H-1,4-benzodiazepin-4-yl]-9H-purin-2-amine], for which the inhibition at 30 µM on RET kinase and on Tec kinase was below 50% throughout.

On to `CC(C)c1ccc(CN2CCN(c3nc(N)nc4[nH]cnc34)Cc3ccccc32)cc1` [Compound 3, 6-[1-(4-isopropylbenzyl)-1,2,3,5-tetrahydro-4H-1,4-benzodiazepin-4-yl]-9H-purin-2-amine], for which the inhibition at 30 µM on RET kinase and on Tec kinase was below 50% in each case.

Regarding `CC(C)(C)c1ccc(CN2CCN(c3nc(N)nc4[nH]ncc34)Cc3ccccc32)cc1` [Compound 30, 4-[1-(4-tert-butylbenzyl)-1,2,3,5-tetrahydro-4H-1,4-benzodiazepin-4-yl]-1H-pyrazolo[3,4-d]pyrimidin-6-amine], the inhibition at 30 µM at RET kinase and on Tec kinase was 50 to 79% each time.

The values are drawn from patent US8343961B2, “Substituted heterocyclic compounds” (ArQule, Inc., priority 2009, dated 2013).
